Legend:
[1] = test system: CHOP-sensitive CRL2631 cells; test: Prevention of the emergence of CHOP resistance in CRL2631 cells; type: cell-based, human; conditions: half (0.5×) and full (1×) doses of CHOP, one week treatment
Protocol: The ability of rifabutin to prevent the emergence of CHOP-resistance was determined by treating CHOP-sensitive CRL2631 cells with either CHOP alone or CHOP+rifabutin for one week. Following treatment, the cells were grown in the absence of CHOP, then their sensitivity to CHOP was assayed by retreatment with CHOP, followed by counting of viable cells. […] A 1× CHOP dose in this experiment corresponds to final concentrations of the following components: 0.83 μM 4-hydroxycyclophosphamide [4HC, a pre-activated form of cyclophosphamide], 0.057 μM doxorubicin, 0.01 μM vincristine, and 0.186 μM prednisone.

[2] = test system: CHOP-resistant G3 NHL cells; test: Cell growth assay (resazurin fluorescence) on G3 cells; type: cell-based, human
Protocol: Compositions were tested on CHOP-resistant G3 NHL cells that had been cultivated in RPMI medium for five days. Prior to assay, the cells were counted by haemocytometer and cell concentration standardized to 625,000 cells/ml. Test drugs were solubilized in 100% DMSO and then diluted to final assay concentration with 0.1M phosphate buffered saline (PBS) and a final DMSO concentration of 0.5%. […] The metabolic dye rezasurin was added to the wells of the assay plate at a final concentration of 20 μg/ml and the plates were incubated for an additional 24 hours. The plates were then read in a BMG Polarstar plate reader at wavelength (573-605) and the data plotted as OD versus increasing dilutions (i.e., decreasing total amounts) of rifabutin derivative concentration.
In these experiments, the following cell lines were used: CHOP-resistant NHL cell line G3, CHOP-sensitive NHL cell line CRL2631, the multi-drug resistant sarcoma cell line MES-SA-Dx5; multi-drug-resistant breast cancer cell line MDA-MB-231, multi-drug resistant ovarian carcinoma cell line SK-OV3, multi-drug resistant ovarian cancer cell line NCI/ADR-RES, drug-sensitive ovarian cancer cell line OVCAR-5, and multi-drug resistant ovarian cancer cell line OVCAR-3. […]

[3] = test system: lymphoma aspirate from a dog with CHOP-resistant lymphoma; test: CHOP responsiveness of lymphoma aspirate from a dog (resazurin); type: cell-based
Protocol: A single lymphoma aspirate from a dog with CHOP-resistant lymphoma was tested for responsiveness to CHOP in the presence or absence of rifabutin. CHOP-responsiveness was measured by a decrease in fluorescence signal generated by resazurin.

SMILES: CO[C@H]1/C=C/O[C@@]2(C)Oc3c(C)c(O)c4c(c3C2=O)C2=NC3(CCN(CC(C)C)CC3)NC2=C(NC(=O)/C(C)=C\C=C\[C@H](C)[C@H](O)[C@@H](C)[C@@H](O)[C@@H](C)[C@H](OC(C)=O)[C@@H]1C)C4=O [Rifabutin, rifabutin]
- Emergence of CHOP-resistant cells [1]: significantly repress
- Magnitude of potentiation in combination with doxorubicin ([2]; G3): +++ (+++ potentiation greater than 5 fold increase)
- Effect on growth of cells in the absence of CHOP ([2]; G3 cells, FIG. 2A): did not affect the growth
- Sensitivity of aspirated lymphoma cells to CHOP ([3]; 5 μM rifabutin): significantly enhanced the sensitivity
- Effect on cell viability in the absence of CHOP ([3]; absence of CHOP): no effect

— patent publication US9539237B2, “Compositions and methods for drug-sensitization or inhibition of a cancer cell” (The Texas A&M University System, priority 2012, dated 2017)
